Results as given in ChEMBL document CHEMBL4382244, “QSAR of 1,4-benzoxazin-3-one antimicrobials and their drug design perspectives” (2018).
≈ marks a conversion by molar mass, not a printed value.

Columns and labels:
Format in all cases: functional
Candida albicans [1] = experiment: Antifungal activity against Candida albicans after 24 hrs by spectrophotometric method
Pichia kudriavzevii = experiment: Antifungal activity against Candida krusei ATCC 6258 by micro-dilution method
Saccharomyces cerevisiae = experiment: Antifungal activity against Saccharomyces cerevisiae ATCC 9763 by micro-dilution method
Candida albicans [2] = experiment: Antifungal activity against Candida albicans CA-6 by micro-dilution method
Escherichia coli [3] = experiment: Antibacterial activity against Escherichia coli ATCC 25922 after 24 hrs by disk diffusion method; details: ATCC 25922, 24 h
Candida albicans [4] = experiment: Antifungal activity against Candida albicans after 24 hrs by disk diffusion method
Staphylococcus aureus [5] = experiment: Antibacterial activity against Staphylococcus aureus ATCC 25923 after 24 hrs by disk diffusion method; details: ATCC 25923, 24 h
Enterococcus faecalis = experiment: Antibacterial activity against Enterococcus faecalis ATCC 29212 after 16 to 20 hrs by microdilution method
Klebsiella pneumoniae = experiment: Antibacterial activity against Klebsiella pneumoniae RSKK 576 after 16 to 20 hrs by microdilution method
Escherichia coli [6] = experiment: Antibacterial activity against Escherichia coli ATCC 25922 after 16 to 20 hrs by microdilution method
Staphylococcus aureus [7] = experiment: Antibacterial activity against Staphylococcus aureus ATCC 29213 after 16 to 20 hrs by microdilution method
Pseudomonas aeruginosa [8] = experiment: Antibacterial activity against Pseudomonas aeruginosa ATCC 10145 after 16 to 20 hrs by microdilution method
Bacillus subtilis = experiment: Antibacterial activity against Bacillus subtilis
Pseudomonas aeruginosa [9] = experiment: Antibacterial activity against Pseudomonas aeruginosa
Escherichia coli [10] = experiment: Antibacterial activity against Escherichia coli
Candida albicans [11] = experiment: Antifungal activity against Candida albicans
Staphylococcus aureus [12] = experiment: Antibacterial activity against Staphylococcus aureus

Compound	MIC (Candida albicans [1]) [µM]	MIC (Candida albicans [4]) [µM]	MIC (Staphylococcus aureus [5]) [µM]	MIC (Enterococcus faecalis) [µM]	MIC (Klebsiella pneumoniae) [µM]	MIC (Escherichia coli [6]) [µM]	MIC (Staphylococcus aureus [7]) [µM]	MIC (Pseudomonas aeruginosa [8]) [µM]	other results
CC(=O)ON1C(=O)C(O)Oc2ccccc21 (stereo not given)	2980 (≈ 666 µg/mL)								
CCOC(=O)CC1Oc2ccc(C(Cn3ccnc3)OCc3ccc(Cl)cc3)cc2N(C)C1=O (stereo not given)									MIC (Pichia kudriavzevii): 114 µM (≈ 55.3 µg/mL); MIC (Saccharomyces cerevisiae): 915 µM (≈ 443 µg/mL); MIC (Candida albicans [2]): 915 µM (≈ 443 µg/mL)
COC(=O)c1ccc2c(c1)OC(O)C(=O)N2 (stereo not given)	4480 (≈ 1000 µg/mL)								
CCOC(=O)CC1Oc2ccc(C(O)Cn3ccnc3)cc2N(C)C1=O (stereo not given)									MIC (Pichia kudriavzevii): 39.2 µM (≈ 14.1 µg/mL); MIC (Saccharomyces cerevisiae): 19.6 µM (≈ 7.04 µg/mL); MIC (Candida albicans [2]): 39.2 µM (≈ 14.1 µg/mL)
COc1ccc2c(c1)OCC(=O)N2O	768 (≈ 150 µg/mL)	850 (≈ 166 µg/mL)	3410 (≈ 666 µg/mL)						MIC (Escherichia coli [3]): 6400 µM (≈ 1250 µg/mL)
COC(=O)c1ccc2c(c1)OCC(=O)N2O [7-MeOCO-D-DIBOA]			4480 (≈ 1000 µg/mL)						
COc1ccc2c(c1)OC(O)C(=O)N2O (stereo not given)	2370 (≈ 500 µg/mL)	2370 (≈ 500 µg/mL)	1580 (≈ 333 µg/mL)						MIC (Escherichia coli [3]): 3150 µM (≈ 666 µg/mL)
O=C1COc2ccccc2N1O	2120 (≈ 350 µg/mL)	2020 (≈ 333 µg/mL)	2020 (≈ 333 µg/mL)						MIC (Escherichia coli [3]): 7570 µM (≈ 1250 µg/mL)
CCOC(=O)CC1Oc2cccc([N+](=O)[O-])c2NC1=O (stereo not given)				457 (≈ 128 µg/mL)	457 (≈ 128 µg/mL)	457 (≈ 128 µg/mL)	914 (≈ 256 µg/mL)	457 (≈ 128 µg/mL)	
Cc1ccc2c(c1)OC(O)C(=O)N2O (stereo not given)		3410 (≈ 666 µg/mL)	2560 (≈ 500 µg/mL)						MIC (Escherichia coli [3]): 3410 µM (≈ 666 µg/mL)
CCOC(=O)CC1Oc2ccc(-c3ccccc3)cc2NC1=O (stereo not given)				206 (≈ 64 µg/mL)	411 (≈ 128 µg/mL)	411 (≈ 128 µg/mL)	411 (≈ 128 µg/mL)	411 (≈ 128 µg/mL)	
O=C1COc2ccccc2N1	6700 (≈ 1000 µg/mL)								
COc1ccc2c(c1)OC(O)C(=O)N2 (stereo not given)	5120 (≈ 1000 µg/mL)								
CCOC(=O)CC1Oc2cccc(C)c2NC1=O (stereo not given)				1030 (≈ 256 µg/mL)	1030 (≈ 256 µg/mL)	1030 (≈ 256 µg/mL)	1030 (≈ 256 µg/mL)	1030 (≈ 256 µg/mL)	
O=C1C(O)Oc2cc([N+](=O)[O-])ccc2N1O (stereo not given)		6630 (≈ 1500 µg/mL)	734 (≈ 166 µg/mL)						MIC (Escherichia coli [3]): 3680 µM (≈ 833 µg/mL)
CCOC(=O)CC1Oc2cc(N)ccc2NC1=O (stereo not given)				1030 (≈ 257 µg/mL)	1030 (≈ 257 µg/mL)	1030 (≈ 257 µg/mL)	1030 (≈ 257 µg/mL)	1030 (≈ 257 µg/mL)	MIC (Bacillus subtilis): 201 µM (≈ 50.2 µg/mL); MIC (Pseudomonas aeruginosa [9]): 201 µM (≈ 50.2 µg/mL); MIC (Escherichia coli [10]): 201 µM (≈ 50.2 µg/mL); MIC (Candida albicans [11]): 100 µM (≈ 25.1 µg/mL); MIC (Staphylococcus aureus [12]): 201 µM (≈ 50.2 µg/mL)

Compound	MIC (Candida albicans [1]) [µM]	MIC (Candida albicans [4]) [µM]	MIC (Staphylococcus aureus [5]) [µM]	MIC (Enterococcus faecalis) [µM]	MIC (Klebsiella pneumoniae) [µM]	MIC (Escherichia coli [6]) [µM]	MIC (Staphylococcus aureus [7]) [µM]	MIC (Pseudomonas aeruginosa [8]) [µM]	other results
O=C1COc2cc(F)ccc2N1O [7-F-D-DIBOA]	2730 (≈ 500 µg/mL)	2730 (≈ 500 µg/mL)	1820 (≈ 333 µg/mL)						MIC (Escherichia coli [3]): 4550 µM (≈ 833 µg/mL)
Cc1ccc2c(c1)OCC(=O)N2O	1950 (≈ 350 µg/mL)	1860 (≈ 333 µg/mL)	1860 (≈ 333 µg/mL)						MIC (Escherichia coli [3]): 2790 µM (≈ 500 µg/mL)
O=C(O)CC1Oc2ccccc2NC1=O (stereo not given)				1090 (≈ 225 µg/mL)	1090 (≈ 225 µg/mL)	1090 (≈ 225 µg/mL)	1090 (≈ 225 µg/mL)	544 (≈ 113 µg/mL)	MIC (Bacillus subtilis): 212 µM (≈ 44 µg/mL); MIC (Pseudomonas aeruginosa [9]): 212 µM (≈ 44 µg/mL); MIC (Escherichia coli [10]): 212 µM (≈ 44 µg/mL); MIC (Candida albicans [11]): 106 µM (≈ 22 µg/mL); MIC (Staphylococcus aureus [12]): 106 µM (≈ 22 µg/mL)
CCOC(=O)CC1Oc2ccc(F)cc2NC1=O (stereo not given)				1010 (≈ 256 µg/mL)	1010 (≈ 256 µg/mL)	1010 (≈ 256 µg/mL)	1010 (≈ 256 µg/mL)	1010 (≈ 256 µg/mL)	
N#Cc1ccc2c(c1)OC(O)C(=O)N2O (stereo not given)		7280 (≈ 1500 µg/mL)	7280 (≈ 1500 µg/mL)						
CCOC(=O)CC1Oc2cc(C)ccc2NC1=O (stereo not given)									MIC (Bacillus subtilis): 303 µM (≈ 75.5 µg/mL); MIC (Pseudomonas aeruginosa [9]): 151 µM (≈ 37.7 µg/mL); MIC (Escherichia coli [10]): 151 µM (≈ 37.7 µg/mL); MIC (Staphylococcus aureus [12]): 303 µM (≈ 75.5 µg/mL)
CCOC(=O)CC1Oc2cc([N+](=O)[O-])ccc2NC1=O (stereo not given)									MIC (Bacillus subtilis): 241 µM (≈ 67.6 µg/mL); MIC (Pseudomonas aeruginosa [9]): 121 µM (≈ 33.8 µg/mL); MIC (Escherichia coli [10]): 241 µM (≈ 67.6 µg/mL); MIC (Candida albicans [11]): 121 µM (≈ 33.8 µg/mL); MIC (Staphylococcus aureus [12]): 121 µM (≈ 33.8 µg/mL)
CCOC(=O)CC1Oc2ccc(C)cc2NC1=O (stereo not given)				457 (≈ 114 µg/mL)	457 (≈ 114 µg/mL)	457 (≈ 114 µg/mL)	914 (≈ 228 µg/mL)	457 (≈ 114 µg/mL)	MIC (Bacillus subtilis): 89.2 µM (≈ 22.2 µg/mL); MIC (Pseudomonas aeruginosa [9]): 178 µM (≈ 44.5 µg/mL); MIC (Escherichia coli [10]): 89.2 µM (≈ 22.2 µg/mL); MIC (Candida albicans [11]): 89.2 µM (≈ 22.2 µg/mL); MIC (Staphylococcus aureus [12]): 89.2 µM (≈ 22.2 µg/mL)
CCOC(=O)CC1Oc2ccc([N+](=O)[O-])cc2NC1=O (stereo not given)				457 (≈ 128 µg/mL)	457 (≈ 128 µg/mL)	457 (≈ 128 µg/mL)	914 (≈ 256 µg/mL)	457 (≈ 128 µg/mL)	
CCOC(=O)CC1Oc2ccc(Cl)cc2NC1=O (stereo not given)				949 to 1030 (≈ 256 to 277 µg/mL)	949 to 1030 (≈ 256 to 277 µg/mL)	949 to 1030 (≈ 256 to 277 µg/mL)	949 to 1030 (≈ 256 to 277 µg/mL)	949 to 1030 (≈ 256 to 277 µg/mL)	MIC (Bacillus subtilis): 201 µM (≈ 54.1 µg/mL); MIC (Pseudomonas aeruginosa [9]): 100 µM (≈ 27 µg/mL); MIC (Escherichia coli [10]): 100 µM (≈ 27 µg/mL); MIC (Candida albicans [11]): 100 µM (≈ 27 µg/mL); MIC (Staphylococcus aureus [12]): 201 µM (≈ 54.1 µg/mL)
CCOC(=O)CC1Oc2cc([N+](=O)[O-])ccc2N(C)C1=O (stereo not given)				949 (≈ 279 µg/mL)	949 (≈ 279 µg/mL)	949 (≈ 279 µg/mL)	949 (≈ 279 µg/mL)	949 (≈ 279 µg/mL)	MIC (Bacillus subtilis): 185 µM (≈ 54.6 µg/mL); MIC (Pseudomonas aeruginosa [9]): 92.7 µM (≈ 27.3 µg/mL); MIC (Escherichia coli [10]): 92.7 µM (≈ 27.3 µg/mL); MIC (Candida albicans [11]): 46.4 µM (≈ 13.7 µg/mL); MIC (Staphylococcus aureus [12]): 185 µM (≈ 54.6 µg/mL)
CCOC(=O)CC1Oc2ccc(S(=O)(=O)CC)cc2NC1=O (stereo not given)				391 (≈ 128 µg/mL)	391 (≈ 128 µg/mL)	391 (≈ 128 µg/mL)	782 (≈ 256 µg/mL)	391 (≈ 128 µg/mL)	
CCOC(=O)CC1Oc2ccc(C(=O)OCC)cc2NC1=O (stereo not given)				407 (≈ 125 µg/mL)	407 (≈ 125 µg/mL)	407 (≈ 125 µg/mL)	814 (≈ 250 µg/mL)	407 (≈ 125 µg/mL)	MIC (Bacillus subtilis): 79.4 µM (≈ 24.4 µg/mL); MIC (Pseudomonas aeruginosa [9]): 159 µM (≈ 48.8 µg/mL); MIC (Escherichia coli [10]): 79.4 µM (≈ 24.4 µg/mL); MIC (Candida albicans [11]): 39.7 µM (≈ 12.2 µg/mL); MIC (Staphylococcus aureus [12]): 159 µM (≈ 48.8 µg/mL)
COC1Oc2ccccc2N(O)C1=O (stereo not given)	3330 (≈ 650 µg/mL)	3410 (≈ 666 µg/mL)	2560 (≈ 500 µg/mL)						
O=C1C(O)Oc2ccccc2N1O (stereo not given)	3680 (≈ 666 µg/mL)	3680 (≈ 666 µg/mL)	2760 (≈ 500 µg/mL)						MIC (Escherichia coli [3]): 6900 µM (≈ 1250 µg/mL)
